Entries after “also recorded” stand apart in the source; their conditions may differ.
Tests used:
[1] = system: peptide-sensitised PHA blasts and LCLs; experiment: 51Cr-release cytotoxicity assay with peptide-specific CTL lines and clones; format: cell-based, human; conditions: for generation of CTL lines with minimised epitope: donors; for sensitizing autologous PHA blast to lysis by YLLEMLWRL-specific CTL clone: serial dilutions of peptide, compared with wild-type YLLEMLWRL, CTL clone SB7
Experimental: Polyclonal CTL lines and LMP1-specific CTL clones were established according to previously published methods (Moss 1988; Khanna 1998). Briefly, 2×10^6 PBMCs were stimulated with 1×10^6 autologous lymphocytes (responder to stimulator ratio of 2:1) pulsed with 10 μM peptide for 1 hr in 2 ml in a 24-well plate. After 3 days, culture medium with IL-2 (10 U/ml) was added and the cells were further expanded. These lymphocytes were restimulated on day 7 with γ-irradiated (8000 rad) autologous LCLs. After 10 days in culture medium, the cells were used as polyclonal effectors in a standard ^51Cr-release assay against peptide-sensitised autologous PHA blasts.
To generate peripheral blood CTL clones specific for the LMP1 derived peptides, PBMCs of healthy donors were reactivated (2×10^6) PBMCs with peptide-sensitised (10 ug of peptide/ml) autologous lymphocytes (1×10^6) in 2 ml wells of a 24-well plate in culture medium. After 3 days, the cells were seeded onto 0.35% agarose and maintained in T cell growth medium containing rIL2 (50 IU/ml). After another 3 days, growing clones were transferred to 96-well round-bottom tissue culture plates (Life Technologies) and cultured in T cell growth medium containing rIL2 (50-100 IU/ml).
Target cells were pre-sensitized with synthetic peptide epitopes and then incubated with ^51Cr for 90 min. Following incubation, these cells were washed in growth medium and used as targets in a standard 5 h ^51Cr-release assay (Moss, 1988)
To further characterize the minimal T cell epitopes defined by ELISPOT assays we generated polyclonal and clonal CTL lines specific for these epitopes. PBMCs from the healthy seropositive donors were stimulated with synthetic peptide epitopes and the CTL clones or polyclonal lines were established and tested in standard ^51Cr-release assays. The […] peptide-specific CTL clones were generated using initial stimulation with peptide-sensitized autologous PBMC followed by continuous restimulation with irradiated autologous LCL. These CTL clones were screened for […]-specific CTL activity by ^51Cr release assays against peptide-sensitised autologous and allogeneic PHA blast and LCLs. […] Titration of this minimal epitope on autologous PHA blasts further confirmed the fine specificity of this CTL clone (FIG. 5B).

[2] = system: CD4+ and CD8+ T cell populations of PBMC; experiment: IFN-γ ELISPOT on CD4- or CD8-depleted PBMC; format: cell-based, human; conditions: peptide 10 μg/ml
Experimental: FIG. 2: Ex vivo detection of IFN-γ secretion by CD4^+ and CD8^+ T cell populations following stimulation with LMP1 peptides. CD4^+ cells or CD8^+ cells were depleted from fresh PBMCs using anti-human CD4 or CD8 immunomagnetic beads as described in the Material and Methods section. These cells were resuspended in growth medium and stimulated with […] (SEQ ID NO: 36; panel A) and […] (SEQ ID NO: 39; panel B) peptides (10 μg/ml) and then tested for IFN-γ secretion using ELISPOT assays.
CD4^+ cells or CD8^+ cells were depleted from fresh PBMCs using anti-human CD4 or CD8 immunomagnetic beads (Dynabeads M450-CD4 and M450-CD8), respectively (Dynal, Oslo, Norway) according to the manufacturer's instructions. Efficient depletion was confirmed by staining the depleted PBMCs using dual staining with FITC-conjugated anti-CD8 and PE-conjugated anti-CD4 antibody and flow cytometry on a Coulter EPICS XL cytometer. […]
To comprehensively profile the memory T cell responses against the LMP1 in seropositive virus carriers we used the ELISPOT assay, which allowed rapid ex vivo profiling of LMP1-specific immune response without prolonged in vitro culture. PBMC isolated from a panel of seropositive healthy virus carriers (Table 2) were stimulated with the complete set of overlapping LMP1 peptides and the cells that produced IFN-γ were detected. […]

[3] = system: T cells in PBMC of EBV seropositive donors; experiment: IFN-γ ELISPOT assay, ex vivo stimulation of PBMC with LMP1 peptides; format: cell-based, human
Experimental: The ELISPOT assay was used to assess whether stimulation of PBMC from a large panel of seropositive donors with LMP1 peptides could induce IFN-γ expression in T cells (Bharadwaj 2001). Briefly, ninety six-well mixed cellulose ester membrane plates (Millipore, Bedford, USA) were precoated with 100 μL/well of […] of anti-IFN-γ mAb, 1-D1K (Mabtech, Stockhohn, Sweden) overnight at 4° C. The plate was washed six times with phosphate-buffered saline (PBS), and unreactive sites blocked using 5% foetal bovine serum. PBMCs from healthy EBV carriers of known HLA types were separated from whole blood by Ficoll-Hypaque (Sigma) density gradient centrifugation. PBMCs were added in triplicate wells at 2.5×10^5 cells in a volume of 100 μL/well, and then peptides were added onto the PBMCs at a final 5 μg/mL concentration. PBMCs were also tested at different concentrations in triplicate wells at 2.5×10^5, 1.5×10^5 and 1×10^5 cells/well. PBMCs with various peptide concentrations, 10 μg/mL, 5 μg/mL and 1 μg/mL, were assayed. For negative controls, PBMCs were incubated in growth medium alone without adding peptides. The plate was incubated at 37° C. with 5% CO2 overnight (about 16-20 hr), then washed thrice with PBST (0.05% of Tween-20 in PBS) and three times with PBS before 100 μL/well of 1 μg/mL anti-IFN-γ mAb, 7-B6-1 (Mabtech, Stockholn, Sweden) was added and incubated at room temperature for 3-4 hr. After incubation, the plate was washed again thrice each with PBST and PBS, and 100 μL/well of 1 μg/mL streptavidin-alkaline phosphatase conjugate (Sigma) was added. The plate was incubated at room temperature for 2 hr. Wells were washed again three times each with PBST and PBS, and individual IFN-γ-producing cells were detected as dark spots after about 30-min to an hour-colour reaction with 5-bromo-4-chloro-3-indolylphosphate and nitroblue tetrazolium using an alkaline phosphatase-conjugated substrate (BCIP/NBT; Sigma). Spots were counted automatically using an image analysis software (ImagePro) (Bharadwaj 2001), and were expressed as spot-forming cells (SFC) per 10^6 PBMCs. The number of IFN-γ-secreting T cells was calculated by subtracting the negative control value from the SFC count.
To comprehensively profile the memory T cell responses against the LMP1 in seropositive virus carriers we used the ELISPOT assay, which allowed rapid ex vivo profiling of LMP1-specific immune response without prolonged in vitro culture. PBMC isolated from a panel of seropositive healthy virus carriers (Table 2) were stimulated with the complete set of overlapping LMP1 peptides and the cells that produced IFN-γ were detected. […] One of the interesting features of these responses was that the majority of the T cell reactivity was directed towards the epitopes within the transmembrane and CTAR1 domains of LMP1, while no reactivity was observed towards the CTAR2 and N-terminus (FIG. 1B). In particular, almost 80% of the CTAR1 domain was targeted for T cell recognition. To identify the T cell subsets responding to these peptides, PBMCs from the seven donors who recognized 17-mer peptides were fractionated into CD4-depleted and CD8-depleted populations and then tested again in ELISPOT assays. […] The CD4-dependent reactivity of the peptide […] was consistent with the previous observations by Leen and colleagues who mapped an HLA DQ2-restricted epitope within this sequence.
In order to determine the frequency of recognition of the HLA class I-restricted LMP1 CTL epitopes, PBMC from a panel of healthy virus carriers of diverse ethnic origin were screened by ELISPOT assays. Four different HLA class I-restricted and one HLA class II-restricted T cell epitopes were included in this analysis. Strong responses were observed against the HLA-A2-restricted […], […] and […] epitopes in 35-45% of the donors tested. […]

HLA A2 = HLA A2 (Homo sapiens, UniProt P04439, D140Y/D185E/D98H/E176V/E277Q/G131W/G231S/I119V/I121R/I166T/I218V/L300P/L318F/N151K/N90K/P208A/P217A/Q86G/Q94H/R138H/R169H/T345S); experiment: MHC stabilisation assay on T2 cells; format: cell-based; parameters: endogenous in cells; host or cells: T2 (.174×CEM.T2), TAP-negative B×T hybrid cell line; conditions: 14-16 h at 26° C. then 2-3 h at 37° C., FACS
Experimental: FIG. 7: A: CTL recognition of variant and prototypic BLA A2-restricted LMP1 epitope […]. PHA blasts were sensitized with serial dilutions of each of the peptides and then exposed to either the […]-specific CTL clone, SB7. B: MHC stabilization analysis on T2 cells using variant and prototypic HLA A2-restricted LMP1 epitope. T2 cells were initially incubated with 200 μl of each of the peptides (10 μg/ml) for 14-16 h at 26° C. followed by incubation at 37° C. for 2-3 h. HLA A2 expression on these cells was analysed by FACS using HLA A2-specific monoclonal antibody.
To assess MHC binding by the HLA A2-restricted LMP1 epitope variants from EBV isolates, T2 cells (2×10^5) were incubated with 200 μl of each of the peptides (100 μg/ml) at 26° C. for 14-16 h, followed by incubation at 37° C. for 2-3 h. After the incubations, HLA A2 expression was measured by FACS using a specific monoclonal antibody (HB82, ATCC).

CD8+ CTL = experiment: Immunization of HLA A2/K^b transgenic mice, epitope-specific T cell responses; conditions: mouse, in vivo
Text: HLA A2/K^b transgenic mice used in this study have been described elsewhere (Theobald 1997). These mice express a chimeric class I molecule composed of the alpha 1 & 2 domains of the human A*0201 allele and the alpha 3 domains of the mouse H-2K^b class I molecules. These mice were vaccinated intraperitoneally with 10^8 plaque forming units of recombinant Ad5-LMPpoly or a control adenovirus. After 3 weeks, splenocytes were harvested and tested for epitope-specific T cell responses. These T cell responses were assessed using ELISPOT and in vivo CTL assays as herein described.

Molecule: DSNSNEGRH
- generation of CTL lines with minimised epitope [1]: did not generate CTL lines

Molecule: DWTGGALLVLYSFALML [LMP1 17-mer peptide]
- T cell subset responding to the peptide [2]: only CD8^+ T-cell dependent reactivity

Molecule: ESDSNSNEG [reference compound]
- generation of CTL lines with minimised epitope [1]: did not generate CTL lines

Molecule: TDDSGHESDSNSNEGRH
- T cell subset responding to the peptide [2]: predominantly mediated by CD4+ cells
- healthy virus carriers tested recognizing the epitope [3]: all three
- healthy donors showing a CD8+ T-cell response in Elispot assays ([3]; responders/healthy donors assessed): 3/21
- magnitude of responses ([3]; responding healthy donors): 131-190 SFC/10^6 PBMC
- CTL response (SFC/10^6 PBMC) ([3]; subject seventeen): 190 SFC/10^6 PBMC
- CTL response (SFC/10^6 PBMC) ([3]; subject ten): 131 SFC/10^6 PBMC
- CTL response (SFC/10^6 PBMC) ([3]; subject twenty): 141 SFC/10^6 PBMC
- recognition of peptide coated autologous PHA blasts by polyclonal CTL lines ([1]; CTL lines from two donors, data not shown): recognition

Molecule: YFLEILWGL
- sensitizing autologous PHA blast to lysis by YLLEMLWRL-specific CTL clone [1]: poorly recognized

Molecule: YFLEILWRL [variant of […] dominant in South-East Asian EBV isolates]
- HLA A2 expression on T2 cells (HLA A2 binding) (HLA A2): unable to rescue HLA A2 expression; also recorded: significant loss in HLA A2 binding
- sensitizing autologous PHA blast to lysis by YLLEMLWRL-specific CTL clone [1]: poorly recognized

Molecule: YLLEILWRL
- HLA A2 expression on T2 cells (HLA A2 binding) (HLA A2): significantly increased MHC expression on T2 cells
- sensitizing autologous PHA blast to lysis by YLLEMLWRL-specific CTL clone [1]: recognized as efficiently as the wild-type epitope

Molecule: YLMEILWRL
- sensitizing autologous PHA blast to lysis by YLLEMLWRL-specific CTL clone [1]: poorly recognized

B1: SEQ ID NO:81: polyepitope protein of thirteen contiguous LMP1 and LMP2 CTL epitopes (protein)
chain: MPYLFWLAAISSCSSCPLSKITYGPVFMCLRRRWRRLTVLLSAWILTALTAGFLIFLCLGGLLTMVVMSNTLLSAWIEDPPFNSLYLLEMLWRLYLQQNWWTLALLVLYSFALIALYLQQNW
- CD8+ CTL responses in polyepitope-immunized mice (CD8+ CTL): induce CD8+CTL responses

— patent US20070048329A1, “Epstein barr virus peptide epitopes, polyepitopes and delivery system therefor” (priority 2002, published 2007)
